The assay concerns HCT116 cells. The assay is described as follows: Flow cytometry binding of biotinylated pHCT74 peptide. The arrangement: species or system human. Here is the method: We propose the use of biotinylated pHCT74 peptide and a chemical cross-linker, DTSSP, to identify the unknown target protein on the plasma membrane of HCT116 cells. A biotin molecule was conjugated to the C terminus of synthetic pHCT74 peptide. The binding characteristics of biotinylated pHCT74 peptide to HCT116 cells were evaluated by flow cytometry for analyzing the concentration dependency of the binding (FIG. 4B). […] The membrane proteins of HCT116 cells were bound with biotin-pHCT74 peptide, cross-linked by DTSSP; followed by SDS-PAGE separation and LC/MS/MS analysis. A sharp bands was detected by silver staining (FIG. 4C), and subsequently analyzed by LC/MS/MS after tryptic digestion. Twelve tryptic peptides were identified as alpha-enolase (ENO1) fragments by search algorithms based on MASCOT software. Coverage of the identified peptides was 57% of the alpha-enolase sequence and the probability score was 424 (FIG. 4D).

Where no end group is shown, it is not given here.

On to “biotinylated pHCT74 peptide: synthetic pHCT74 peptide with a biotin molecule conjugated to the C terminus (SSMDIVLRAPLMGGG-biotin)”, for which the “cell binding activity after C-terminal biotin addition” value is “did not affect its cell binding activity”.
